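Cells were grown in 96-well plates and exposed to each compound for 48 hours at five concentrations; endpoints were interpolated linearly between bracketing concentrations, or set to the highest concentration if not reached. TGI: concentration producing complete growth inhibition.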
Key:
Experiment in all cases: NCI anticancer screen, dose series, 48 h
CCRF-CEM leukemia = tested on: CCRF-CEM leukemia
LXFL 529 NSCLC = tested on: LXFL 529 NSCLC
SF-268 CNS = tested on: SF-268 CNS
786-0 renal = tested on: 786-0 renal
SNB-75 CNS = tested on: SNB-75 CNS
NCI-H226 lung = tested on: NCI-H226 lung
SR leukemia = tested on: SR leukemia
KM12 colon = tested on: KM12 colon
ACHN renal = tested on: ACHN renal
SK-MEL-5 melanoma = tested on: SK-MEL-5 melanoma
NCI-H23 lung = tested on: NCI-H23 lung
UACC-62 melanoma = tested on: UACC-62 melanoma
NCI-H460 lung = tested on: NCI-H460 lung
M14 melanoma = tested on: M14 melanoma
U251 CNS = tested on: U251 CNS
MALME-3M melanoma = tested on: MALME-3M melanoma
OVCAR-4 ovarian = tested on: OVCAR-4 ovarian
SF-295 CNS = tested on: SF-295 CNS
HL-60(TB) leukemia = tested on: HL-60(TB) leukemia
HOP-92 NSCLC = tested on: HOP-92 NSCLC
IGROV1 ovarian = tested on: IGROV1 ovarian
SW-620 colon = tested on: SW-620 colon
XF 498 CNS = tested on: XF 498 CNS
SNB-78 CNS = tested on: SNB-78 CNS
SK-OV-3 ovarian = tested on: SK-OV-3 ovarian
HT29 colon = tested on: HT29 colon
OVCAR-8 ovarian = tested on: OVCAR-8 ovarian
UACC-257 melanoma = tested on: UACC-257 melanoma
M19-MEL melanoma = tested on: M19-MEL melanoma
DLD-1 colon = tested on: DLD-1 colon
SN12C renal = tested on: SN12C renal
SNB-19 CNS = tested on: SNB-19 CNS
SF-539 CNS = tested on: SF-539 CNS
HCC-2998 colon = tested on: HCC-2998 colon
HOP-62 NSCLC = tested on: HOP-62 NSCLC
EKVX NSCLC = tested on: EKVX NSCLC
RXF 393 renal = tested on: RXF 393 renal
TK-10 renal = tested on: TK-10 renal
A549 NSCLC = tested on: A549 NSCLC
LOX IMVI melanoma = tested on: LOX IMVI melanoma
OVCAR-3 ovarian = tested on: OVCAR-3 ovarian
KM20L2 colon = tested on: KM20L2 colon
CAKI-1 renal = tested on: CAKI-1 renal
SK-MEL-28 melanoma = tested on: SK-MEL-28 melanoma
HOP-18 NSCLC = tested on: HOP-18 NSCLC
K-562 leukemia = tested on: K-562 leukemia
HCT-116 colon = tested on: HCT-116 colon
COLO 205 colon = tested on: COLO 205 colon
A498 renal = tested on: A498 renal
NCI-H522 lung = tested on: NCI-H522 lung
UO-31 renal = tested on: UO-31 renal
RPMI-8226 leukemia = tested on: RPMI-8226 leukemia
MOLT-4 leukemia = tested on: MOLT-4 leukemia
SK-MEL-2 melanoma = tested on: SK-MEL-2 melanoma
DMS 114 small cell lung = tested on: DMS 114 small cell lung
OVCAR-5 ovarian = tested on: OVCAR-5 ovarian
DMS 273 small cell lung = tested on: DMS 273 small cell lung
HCT-15 colon = tested on: HCT-15 colon

Measured: TGI

COc1nc2c(nc(N)n2C2OC(CO)C(O)C(O)C2O)c(=O)[nH]1 (configuration not stated)
not listed: RPMI-8226 leukemia | MOLT-4 leukemia | SK-MEL-2 melanoma | DMS 114 small cell lung | OVCAR-5 ovarian | DMS 273 small cell lung | HCT-15 colon
> 100 µM: all other assays above

CC1CCC2(OC1)OC1CC3C4CCC5CC(O)CCC5(C)C4CC(=O)OC3(C)C1C2C (configuration not stated)
not listed: NCI-H226 lung | XF 498 CNS
> 100 µM: all other assays above

C/C(=N\OCC(O)CNC(C)C)c1ccc2c(c1)NC(=O)CS2 (configuration not stated)
not listed: SR leukemia | HL-60(TB) leukemia | IGROV1 ovarian | CAKI-1 renal | RPMI-8226 leukemia | DMS 273 small cell lung
> 100 µM: all other assays above

O=C(O)CNS(=O)(=O)c1ccc(NC(=O)c2ccccc2[N+](=O)[O-])cc1
not listed: NCI-H226 lung | SR leukemia | KM12 colon | SF-295 CNS | SNB-78 CNS | HCC-2998 colon | HOP-62 NSCLC | OVCAR-3 ovarian | HCT-116 colon | DMS 114 small cell lung
> 100 µM: all other assays above

CCCCCC(/C=C/[C@@H]1[C@H]2CC(=O)O[C@H]2C[C@H]1N1CCOCC1)OC1CCCO1 (some centres not stated)
not listed: SR leukemia | XF 498 CNS | SN12C renal
> 100 µM: all other assays above

Source: PubChem BioAssay (NCI)
